What was measured:
[1] = 100 kPa, Liquid; for viscosity: Capillary tube (Ostwald / Ubbelohde) method; for mass density: Vibrating tube method
[2] = xn = mol fraction of the nth substance listed; settings: 100 kPa, Liquid; for viscosity: Capillary tube (Ostwald / Ubbelohde) method; for mass density: Vibrating tube method

CCNCCO [2-(ethylamino)ethanol]
[1]
Settings | mass density [kg/m3] | viscosity [mPa·s]
293.15 K | 916.8 | 15.39
303.15 K | 909.7 | 9.65
313.15 K | 901.3 | 6.64
323.15 K | 894.7 | 4.53
333.15 K | 887.2 | 3.36

CCNCCO [2-(ethylamino)ethanol] + CCN(CC)CCO
[2]
Settings | mass density, 293.15 K [kg/m3] | mass density, 303.15 K [kg/m3] | mass density, 313.15 K [kg/m3] | mass density, 323.15 K [kg/m3] | mass density, 333.15 K [kg/m3] | viscosity, 293.15 K [mPa·s] | viscosity, 303.15 K [mPa·s] | viscosity, 313.15 K [mPa·s] | viscosity, 323.15 K [mPa·s] | viscosity, 333.15 K [mPa·s]
x2 = 0 | 916.8 | 909.7 | 901.3 | 894.7 | 887.2 | 15.39 | 9.65 | 6.64 | 4.53 | 3.36
x2 = 0.2 | 910 | 903 | 894.8 | 887.8 | 880.6 | 12.19 | 7.84 | 5.35 | 3.85 | 2.88
x2 = 0.4 | 903 | 895.5 | 887.6 | 880 | 872.1 | 9.87 | 6.51 | 4.5 | 3.3 | 2.48
x2 = 0.6 | 897 | 889 | 880.2 | 872.2 | 864.3 | 8.04 | 5.4 | 3.78 | 2.8 | 2.14
x2 = 0.8 | 889.7 | 881.6 | 873 | 864.6 | 856.4 | 6.36 | 4.36 | 3.11 | 2.31 | 1.79

CCNCCO [2-(ethylamino)ethanol] + O
[2]
Settings | mass density, 293.15 K [kg/m3] | mass density, 303.15 K [kg/m3] | mass density, 313.15 K [kg/m3] | mass density, 323.15 K [kg/m3] | mass density, 333.15 K [kg/m3] | viscosity, 293.15 K [mPa·s] | viscosity, 303.15 K [mPa·s] | viscosity, 313.15 K [mPa·s] | viscosity, 323.15 K [mPa·s] | viscosity, 333.15 K [mPa·s]
x2 = 0 | 916.8 | 909.7 | 901.3 | 894.7 | 887.2 | 15.39 | 9.65 | 6.64 | 4.53 | 3.36
x2 = 0.2 | 929.5 | 922.4 | 914 | 907.4 | 898.6 | 23.82 | 14.54 | 9.29 | 6.23 | 4.52
x2 = 0.4 | 943.1 | 936.1 | 927.8 | 920.7 | 912 | 31.73 | 18.56 | 11.41 | 7.3 | 5.03
x2 = 0.6 | 961.6 | 954.8 | 946 | 938.7 | 931.1 | 31.02 | 17.34 | 10.71 | 7.08 | 4.68
x2 = 0.8 | 985.7 | 979.5 | 972.5 | 963 | 955.6 | 13.83 | 8.34 | 5.44 | 3.73 | 2.69

CCN(CC)CCO [(diethylamino)ethanol]
[1]
Settings | mass density [kg/m3] | viscosity [mPa·s]
293.15 K | 883.5 | 4.81
303.15 K | 875.1 | 3.37
313.15 K | 866.2 | 2.46
323.15 K | 857.5 | 1.86
333.15 K | 849.2 | 1.46

CCN(CC)CCO [(diethylamino)ethanol] + CCNCCO
[2], x1 = 1
Settings | mass density [kg/m3] | viscosity [mPa·s]
293.15 K | 883.5 | 4.81
303.15 K | 875.1 | 3.37
313.15 K | 866.2 | 2.46
323.15 K | 857.5 | 1.86
333.15 K | 849.2 | 1.46

O [water] + CCNCCO
[2], x1 = 1
Settings | mass density [kg/m3] | viscosity [mPa·s]
293.15 K | 998 | 1.01
303.15 K | 995.1 | 0.8
313.15 K | – | 0.65
323.15 K | 989.2 | 0.55
333.15 K | 985 | 0.47
